Data on seven compounds can be found in ChEMBL document CHEMBL1153952, “Selective, potent PPARgamma agonists with cyclopentenone core structure” (Bioorg Med Chem Lett, 2009).

Test [1] has as its target T1, Peroxisome proliferator-activated receptor gamma (Homo sapiens, UniProt P37231).
T1 sequence (P37231 whole entry): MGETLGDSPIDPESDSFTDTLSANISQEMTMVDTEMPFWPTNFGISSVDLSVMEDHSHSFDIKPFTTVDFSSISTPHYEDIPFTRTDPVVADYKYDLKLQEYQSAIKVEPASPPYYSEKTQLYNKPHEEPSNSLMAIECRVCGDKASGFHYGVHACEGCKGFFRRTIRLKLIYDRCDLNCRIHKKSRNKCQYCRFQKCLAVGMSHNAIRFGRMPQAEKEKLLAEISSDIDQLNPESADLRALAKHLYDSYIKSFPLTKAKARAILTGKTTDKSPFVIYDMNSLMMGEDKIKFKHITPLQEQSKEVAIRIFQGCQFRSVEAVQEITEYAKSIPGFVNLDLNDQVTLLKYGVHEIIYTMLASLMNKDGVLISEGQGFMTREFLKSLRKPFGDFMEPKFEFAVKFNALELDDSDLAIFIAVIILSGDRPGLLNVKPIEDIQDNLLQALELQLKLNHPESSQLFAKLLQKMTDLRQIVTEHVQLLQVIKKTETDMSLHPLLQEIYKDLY
It counts as cell-based, HeLa.

Test [2] concerns the target T2, Peroxisome proliferator-activated receptor alpha (Homo sapiens, UniProt Q07869).
T2 sequence (Q07869 whole entry): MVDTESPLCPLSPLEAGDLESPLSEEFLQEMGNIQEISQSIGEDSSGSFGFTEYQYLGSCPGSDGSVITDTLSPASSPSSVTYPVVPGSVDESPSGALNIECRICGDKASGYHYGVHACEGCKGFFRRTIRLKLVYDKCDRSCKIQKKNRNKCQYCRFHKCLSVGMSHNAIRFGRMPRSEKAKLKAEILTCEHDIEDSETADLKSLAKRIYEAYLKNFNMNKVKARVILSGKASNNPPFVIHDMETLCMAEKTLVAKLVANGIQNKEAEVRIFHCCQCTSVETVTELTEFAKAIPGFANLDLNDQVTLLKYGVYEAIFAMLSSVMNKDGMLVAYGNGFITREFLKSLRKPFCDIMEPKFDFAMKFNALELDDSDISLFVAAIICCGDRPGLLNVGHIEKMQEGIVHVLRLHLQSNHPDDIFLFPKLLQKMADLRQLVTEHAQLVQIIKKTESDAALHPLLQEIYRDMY
Put plainly: Agonist activity at PPARalpha ligand binding domain expressed in human HeLa cells co-transfected with Gal4-DBD assessed as transcriptional activation by Gal4 response element-driven luciferase reporter gene assay. The format is cell-based.

The target of test [3] is T3, Peroxisome proliferator-activated receptor delta (Homo sapiens, UniProt Q03181).
T3 sequence (Q03181 whole entry): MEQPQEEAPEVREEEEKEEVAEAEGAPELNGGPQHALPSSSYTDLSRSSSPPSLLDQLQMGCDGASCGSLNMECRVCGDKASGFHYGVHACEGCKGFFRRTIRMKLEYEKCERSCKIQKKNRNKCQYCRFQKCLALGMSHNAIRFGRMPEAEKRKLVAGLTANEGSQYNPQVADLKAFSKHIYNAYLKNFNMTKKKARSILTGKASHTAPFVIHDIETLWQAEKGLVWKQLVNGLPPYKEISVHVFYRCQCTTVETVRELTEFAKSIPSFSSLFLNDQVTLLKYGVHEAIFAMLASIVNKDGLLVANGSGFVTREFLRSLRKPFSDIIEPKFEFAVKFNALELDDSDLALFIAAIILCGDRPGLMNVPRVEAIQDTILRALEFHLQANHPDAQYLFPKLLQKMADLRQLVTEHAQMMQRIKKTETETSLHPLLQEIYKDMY

Each structure is given as a SMILES string.

As a reminder, the EC50 is the midpoint of the concentration-response curve. For `CCCCCCC[C@H]1C(=O)C=C[C@@H]1OCCCCCC(=O)O`, the EC50 in test [1] was 4000 nM; in test [2], 1000 nM; in test [3], greater than 10000 nM.

Regarding `CCCCCCC[C@H]1C(=O)C=C[C@H]1OCCCCCC(=O)O`, the EC50 in test [1] and in test [3] was 2000 nM throughout.

As for `CCCCCCC[C@H]1C(=O)C=C(I)[C@@H]1OCCCCCC(=O)O` (relative stereo), the EC50 came out at 30 nM in test [1], 1000 nM in test [2] and 500 nM in test [3].

On to `CCCCCCC#CC1=CC(=O)[C@H](CCCCCCC)[C@H]1OCCCCCC(=O)O` (relative stereo), for which the EC50 came out at 8000 nM in test [1], 500 nM in test [2] and 2000 nM in test [3].

Take `CCCCCCC[C@H]1C(=O)C=C(I)[C@H]1OCCCCCC(=O)O` (relative stereo): the EC50 in test [1] is 60 nM; in test [2], greater than 10000 nM; in test [3], greater than 10000 nM.

Regarding `CCCCCCC#CC1=CC(=O)[C@H](CCCCCCC)[C@@H]1OCCCCCC(=O)O` (relative stereo), the EC50 in test [1] was 4000 nM; in test [2], 500 nM; in test [3], greater than 10000 nM.

`CCCCCCCN(CCc1ccc(SC(C)(C)C(=O)O)cc1)C(=O)Nc1ccc(F)cc1F` [GSK-9578] yielded a 50% effective concentration (EC50) in test [3] of 1000 nM.
